The term IC50 denotes the midpoint of a concentration-inhibition curve. A low value points to inhibition by little substance.

Drawing on article PMC11219766 (Nature Communications, 2024), this text covers IC50 and Hill slope for 26 molecules.

The target in test [1] is T1, CIB1 (Homo sapiens, UniProt Q99828). In words: biochemical.
From the text: (§1) Binding of the 56 purchased compounds was experimentally assessed in a time-resolved fluorescence energy transfer (TR-FRET) assay (see Fig. 3A and Supplementary data 1). Briefly, it serves as a displacement assay using an AlexaFluor-labeled cyclic CIB1-binding peptide and a Europium (Eu)-labeled Streptavidin donor for attachment to the AviTag biotinylated CIB1 protein (described previously in Puhl et al. and Haberman et al.[47],[62]).
(§2) A CIB1 TR-FRET assay uses an AlexaFluor-labeled cyclic CIB1-binding peptide and a Europium (Eu)-labeled Streptavidin donor for attachment to the AviTag biotinylated CIB1 protein. […] Compounds were dispensed into 384-well plates using a Mosquito HTS nanoliter instrument (TTP LABTech) as 3-fold serial dilutions (100x in DMSO, 0.1 μL) for final concentrations ranging from 100 μM to 0.5 nM. Biotinylated CIB1 was diluted to a final concentration of 3 nM in assay buffer (20 mM) TRIS pH 7.5, 150 mM NaCl, 1 mM CaCl, 1 mM CHAPS, and 1 mM DTT (added fresh each time), and 5 μL of diluted protein was added to the wells of the assay plate using a Multidrop Combi Reagent Dispenser (Thermo Scientific) and incubated at room temperature for 20 min. 5 μL detection solution containing 2 nM Lance Eu-Streptavidin (Perkin Elmer) and 30 nM Alexa647-CIB1-phage peptide diluted in assay buffer was added to the wells and incubated 30–60 min at room temperature protected from light. TR-FRET signals were measured using an Envision Multilabel Plate Reader (PerkinElmer; Eu excitation 320 nm, Eu emission 615 nm, Alexa dye emission 665 nm). […] Inhibition curves were analyzed using a four-parameter non-linear curve fit using ScreenAble software, and the mean and standard deviation were calculated. Publication curves were averaged and fit with a four-parameter non-liner curve fit using GraphPad Prism.
For test [2], the target named is T1, CIB1.
From the text: as §1, §2

T1 sequence (Q99828 whole entry): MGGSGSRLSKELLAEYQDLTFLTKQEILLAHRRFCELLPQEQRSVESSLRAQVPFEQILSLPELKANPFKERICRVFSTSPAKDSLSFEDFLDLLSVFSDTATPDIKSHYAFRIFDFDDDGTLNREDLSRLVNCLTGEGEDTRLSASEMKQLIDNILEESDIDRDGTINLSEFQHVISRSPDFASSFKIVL

`CC1Cc2ccccc2N1C(=O)CC1CCN(S(=O)(=O)c2ccc3c(c2)oc(=O)n3C)CC1` (centres unmarked) [UNC10245457A, CC1Cc2ccccc2N1C(=O)CC1CCN(CC1)S(=O)(=O)c1ccc2n(C)c(=O)oc2c1]: the IC50 at CIB1 [1] came to 44 µM.

Regarding `Cc1cc(OCCCn2cc(C=C3C(=O)NC(=O)N(Cc4ccco4)C3=O)c3ccccc32)cc(C)c1Cl` [UNC10245540, Cc1cc(OCCCn2cc(C=C3C(=O)NC(=O)N(Cc4ccco4)C3=O)c3ccccc23)cc(C)c1Cl], the half-maximal inhibitory concentration (IC50) against CIB1 [1] worked out at 23 µM.

With `O=C1NC(=O)N(Cc2ccco2)C(=O)C1=Cc1cn(CCCOc2ccccc2)c2ccccc12` [UNC10245534, O=C1NC(=O)C(=Cc2cn(CCCOc3ccccc3)c3ccccc23)C(=O)N1Cc1ccco1], on CIB1 [1], half-maximal inhibition (IC50) was put at 24 µM.

On CIB1 [1], `COc1cccc(OCCn2cc(C=C3C(=O)NC(=O)N(Cc4ccco4)C3=O)c3ccccc32)c1` [UNC10245542, COc1cccc(OCCn2cc(C=C3C(=O)NC(=O)N(Cc4ccco4)C3=O)c3ccccc23)c1] gave an IC50 of 50 µM.

At CIB1 [1], `COc1ccccc1N1CCN(C(=O)CCCc2nnc3n(CC(C)C)c(=O)c4sccc4n23)CC1` [UNC10245420A, COc1ccccc1N1CCN(CC1)C(=O)CCCc1nnc2n(CC(C)C)c(=O)c3sccc3n12] returned an IC50 of 87 µM.

Consider `COc1ccccc1OCCn1cc(C=C2C(=O)NC(=O)N(Cc3ccco3)C2=O)c2ccccc21` [UNC10245537, COc1ccccc1OCCn1cc(C=C2C(=O)NC(=O)N(Cc3ccco3)C2=O)c2ccccc12], for which the 50% inhibitory concentration (IC50) at CIB1 [1] was 22 µM.

At CIB1 [1], `COc1cccc(CNC(=O)C2CCN(C(=O)[C@@H](Cc3ccccc3)NC(=O)COc3ccccc3)CC2)c1` [UNC10245418A, COc1cccc(CNC(=O)C2CCN(CC2)C(=O)[C@@H](Cc2ccccc2)NC(=O)COc2ccccc2)c1] registered a concentration for half-maximal inhibition (IC50) of 93 µM.

At CIB1 [1], `CCOC(=O)c1cc(-c2ccc(N3CCN(C(=O)COc4ccccc4)CC3)cc2)n(-c2ccccc2OC)n1` [UNC10245416A, CCOC(=O)c1cc(-c2ccc(cc2)N2CCN(CC2)C(=O)COc2ccccc2)n(n1)-c1ccccc1OC] showed an IC50 of 12 µM.

In the case of `COc1ccccc1OCCC1CCN(C(=O)C2CCN(S(=O)(=O)c3cccc4nonc34)CC2)C1` (centres unmarked) [UNC10245474A, COc1ccccc1OCCC1CCN(C1)C(=O)C1CCN(CC1)S(=O)(=O)c1cccc2nonc12], half-maximal inhibition against CIB1 [1] (IC50) was put at 75 µM.

`CCOc1ccccc1NC(=O)Nc1cccc(OCc2cc(=O)n3ccccc3n2)c1` [UNC10245432A, CCOc1ccccc1NC(=O)Nc1cccc(OCc2cc(=O)n3ccccc3n2)c1] showed an IC50 against CIB1 [1] of 43 µM.

For the molecule `Cc1noc(C)c1COc1cccc(C(=O)Nc2cccc(S(=O)(=O)Nc3cccc(C(F)(F)F)c3)c2)c1` [UNC10245406A, Cc1noc(C)c1COc1cccc(c1)C(=O)Nc1cccc(c1)S(=O)(=O)Nc1cccc(c1)C(F)(F)F], the midpoint of inhibition on CIB1 [1], the IC50, lay at 39 µM.

On to `COc1ccc(OCCn2cc(C=C3C(=O)NC(=O)N(Cc4ccco4)C3=O)c3ccccc32)cc1` [UNC10245538, COc1ccc(OCCn2cc(C=C3C(=O)NC(=O)N(Cc4ccco4)C3=O)c3ccccc23)cc1], for which 19 µM corresponded to half-maximal inhibition at CIB1 [1] (IC50).

`COc1cccc(OCCCn2cc(C=C3C(=O)NC(=O)N(Cc4ccco4)C3=O)c3ccccc32)c1` [UNC10245380A, COc1cccc(OCCCn2cc(C=C3C(=O)NC(=O)N(Cc4ccco4)C3=O)c3ccccc23)c1]: the Hill slope on CIB1 [2] is reported as 1.5–2.5.

At CIB1 [1], `Cc1ccc(C)c(S(=O)(=O)N2CCN(C(=O)CSc3nnc(-c4ccc5c(c4)OCO5)n3-c3ccccc3)CC2)c1` [UNC10245404A, Cc1ccc(C)c(c1)S(=O)(=O)N1CCN(CC1)C(=O)CSc1nnc(-c2ccc3OCOc3c2)n1-c1ccccc1] returned a half-inhibitory concentration (IC50) of 14 µM.

Regarding `Cc1cc(C)cc(OCCCn2cc(C=C3C(=O)NC(=O)N(Cc4ccco4)C3=O)c3ccccc32)c1` [UNC10245541, Cc1cc(C)cc(OCCCn2cc(C=C3C(=O)NC(=O)N(Cc4ccco4)C3=O)c3ccccc23)c1], the concentration for half-maximal inhibition (IC50) against CIB1 [1] stood at 4.3 µM.

Consider `CC(c1nnc(SCC(=O)Nc2ccc(Oc3ccccc3)cc2)n1C)N1C(=O)COc2ccccc21` (centres unmarked) [UNC10245386A, CC(N1C(=O)COc2ccccc12)c1nnc(SCC(=O)Nc2ccc(Oc3ccccc3)cc2)n1C], for which the concentration for half-maximal inhibition (IC50) against CIB1 [1] was 33 µM.

For `Cc1cccc(OCCCn2cc(C=C3C(=O)NC(=O)N(Cc4ccco4)C3=O)c3ccccc32)c1` [UNC10245535, Cc1cccc(OCCCn2cc(C=C3C(=O)NC(=O)N(Cc4ccco4)C3=O)c3ccccc23)c1], the IC50 against CIB1 [1] amounted to 6.1 µM.

In the case of `CN(Cc1ccco1)C(=O)c1ccc(COc2ccc3c(c2)C(c2cccc(F)c2)N(C(=O)C2CC2)CC3)o1` (centres unmarked) [UNC10245413A, CN(Cc1ccco1)C(=O)c1ccc(COc2ccc3CCN(C(c4cccc(F)c4)c3c2)C(=O)C2CC2)o1], on CIB1 [1], half-maximal inhibition (IC50) was put at 48 µM.

With `O=C(NCc1ccc2c(c1)OCO2)C1CCN(S(=O)(=O)c2cccc3nsnc23)CC1` [UNC10245381A, O=C(NCc1ccc2OCOc2c1)C1CCN(CC1)S(=O)(=O)c1cccc2nsnc12], half-maximal inhibition against CIB1 [1] (IC50) was put at 84 µM.

Molecule `O=C(Nc1cccc2ncccc12)c1cccc(NS(=O)(=O)c2ccc3c(c2)OCCCO3)c1` [UNC10245399A, O=C(Nc1cccc2ncccc12)c1cccc(NS(=O)(=O)c2ccc3OCCCOc3c2)c1] had an IC50 against CIB1 [1] of 59 µM.

`O=C1NC(=O)N(Cc2ccco2)C(=O)C1=Cc1cn(CCCOc2ccccc2Cl)c2ccccc12` [UNC10245536, Clc1ccccc1OCCCn1cc(C=C2C(=O)NC(=O)N(Cc3ccco3)C2=O)c2ccccc12] registered a half-inhibitory concentration (IC50) against CIB1 [1] of 12 µM.

Consider `CC(c1cc(-c2ccccc2)[nH]n1)N(C)C(=O)C1CCN(c2cccc3c2C(=O)N(Cc2cccs2)C3=O)CC1` (centres unmarked) [UNC10245397A, CC(N(C)C(=O)C1CCN(CC1)c1cccc2C(=O)N(Cc3cccs3)C(=O)c12)c1cc([nH]n1)-c1ccccc1], for which, on CIB1 [1], the half-maximal inhibitory concentration (IC50) is 24 µM.

As for `COc1cccc(C(=O)N(CC(=O)Nc2ccc(N3CCN(C(=O)c4ccc(C)cc4)CC3)cc2)Cc2ccc(F)cc2)c1` [UNC10245410A, COc1cccc(c1)C(=O)N(CC(=O)Nc1ccc(cc1)N1CCN(CC1)C(=O)c1ccc(C)cc1)Cc1ccc(F)cc1], 11 µM corresponded to half-maximal inhibition at CIB1 [1] (IC50).

Take `COc1ccccc1OCCCn1cc(C=C2C(=O)NC(=O)N(Cc3ccco3)C2=O)c2ccccc21` [UNC10245533, COc1ccccc1OCCCn1cc(C=C2C(=O)NC(=O)N(Cc3ccco3)C2=O)c2ccccc12]: it took 9.8 µM to reach half-maximal inhibition at CIB1 [1] (IC50).

For the molecule `COc1ccc(OCCCn2cc(C=C3C(=O)NC(=O)N(Cc4ccco4)C3=O)c3ccccc32)cc1` [UNC10245539, COc1ccc(OCCCn2cc(C=C3C(=O)NC(=O)N(Cc4ccco4)C3=O)c3ccccc23)cc1], inhibition on CIB1 [1] was half-maximal at 18 µM (IC50).

At CIB1 [1], `Cc1cc(NC(=O)CSc2nc3ccccc3c(=O)n2CC2CCC(C(=O)NCc3ccccc3Cl)CC2)n[nH]1` (centres unmarked) [UNC10245433A, Cc1cc(NC(=O)CSc2nc3ccccc3c(=O)n2CC2CCC(CC2)C(=O)NCc2ccccc2Cl)n[nH]1] yielded a concentration for half-maximal inhibition (IC50) of 8.8 µM.
